Like-named read-outs stand apart in the source and are kept apart here.
What was measured:
Assay type in all cases: cell-based
[1] = test system: human umbilical vein endothelial cells (HUVEC); assay: In vitro neovascular inhibition evaluation
Procedure: Anti-angiogenesis effects of ethoxy combretastatins were assessed in human umbilical vein endothelial cells (HUVEC) using the same method described in Example 10.

[2] = test system: HT-29 (human colon cancer cell); assay: In vitro anti-tumor activity evaluation (SRB/MTT, 72 hours); settings: read-out: IC50 Colon cancer HT29
Procedure: (§1) The tumor cell cultured in vitro was treated with ethoxy combretastatin derivatives for 72 hours, and the MTT and SRB assays was used to evaluate its inhibition of tumor proliferation.
(§2) Cell Line: H460 (human lung cancer cell), SGC7901 (human stomach cancer cell), HT-29 (human colon cancer cell), Bel-7402 (human liver cancer cell).
(§3) Experimental Design: The cells were incubated with the compounds in various concentrations (100, 10, 1, 0.1, 0.01, 0.001 μM) for 72 hours. SRB assay was used to evaluate the inhibition effect of the compounds on cell proliferation. The inhibition rate was calculated, and IC50 was calculated by using Logit model as a function of the inhibition rate. And the anti-tumor activity of the compounds in vitro was compared.
(§4) The Inhibition Rate was Expressed Using the Following Equation: Inhibition rate (%)=[(average OD value of control group−average OD value of experimental group)/average OD value of control group]×100%.

[3] = test system: Bel-7402 (human liver cancer cell); assay: as above; settings: read-out: IC50 Liver cancer Bel-7402
Procedure: as §1, §2, §3, §4

[4] = test system: H460 (human lung cancer cell); assay: as above; settings: read-out: IC50 Non-small cell lung cancer H460
Procedure: as §1, §2, §3, §4

[5] = test system: SGC7901 (human stomach cancer cell); assay: as above; settings: read-out: IC50 Stomach cancer SGC-7901
Procedure: as §1, §2, §3, §4

[6] = Homo sapiens, read-out: IC50 HUVEC

| SMILES | IC50 [1, 6] [nM] | IC50 ([2]; Homo sapiens, HT-29, 72 h) [nM] | IC50 ([3]; Homo sapiens, Bel-7402, 72 h) [nM] | IC50 ([4]; Homo sapiens, NCI-H460, 72 h) [nM] | IC50 ([5]; Homo sapiens, SGC-7901, 72 h) [nM] | IC50 ([1]; same method as Example 10, read-out: IC50 HUVEC) [nM] | IC50 ([2]; HT29 cells, 72 hours incubation) [nM] | IC50 ([3]; Bel-7402 cells, 72 hours incubation) [nM] | IC50 ([4]; H460 cells, 72 hours incubation) [nM] | IC50 ([5]; SGC-7901 cells, 72 hours incubation) [nM] |
| --- | --- | --- | --- | --- | --- | --- | --- | --- | --- | --- |
| CCOc1ccc(/C=C\c2cc(OC)c(OC)c(OC)c2)cc1N [3′-Amino ethoxy combretastatin, (Z)-1-(3,4,5-trimethoxy)phenyl-2-(3′-amino-4′-ethoxy) Phenylethylene] | 1500 | 25 | 330 | 8 | 6 |  |  |  |  |  |
| COc1ccc(/C=C\c2cc(OC)c(OC)c(OC)c2)cc1O [CA-4, (Z)-1-(3,4,5-trimethoxy)phenyl-2-(3′-hydroxy-4′-methoxy)phenylethylene] |  |  |  |  |  | 3700 | 2380 | 750 | 27 | 10 |
| CCOc1ccc(/C=C\c2cc(OC)c(OC)c(OC)c2)cc1O [Ethoxy combretastatin, (Z)-1-(3,4,5-trimethoxy)phenyl-2-(3′-hydroxy-4′-ethoxy) Phenylethylene] | 2200 | 47 | 620 | 11 | 8 |  |  |  |  |  |
